Laboratory results as given in patent US11572371B2, “BRD4 inhibitor” (HINOVA PHARMACEUTICALS INC., priority 2017, dated 2023).

Assays:
CWR22RV1 cells = experiment: Inhibition of CWR22RV1 cell proliferation (CCK-8); assay type: cell-based; conditions: Homo sapiens, CWR22Rv1, 144 h; cultured for 6 days, CCK-8; read-out: IC50 on CWR22RV1
Description: Test Example 2 Biological Determination of the Inhibitory Effect of the Compound on CWR22RV1 Cell Proliferation
Experimental Materials: • CWR22RV1 cell line (Cell bank of Chinese Academy of Sciences, TCHu100) • FBS (Gibco, Cat. No. 10099-141) • 0.01M PBS (Biosharp, Cat. No. 162262) • RIPM1640 (Hyclone, Cat. No. 308090.01) • Penicillin-Streptomycin (Hyclone, Cat. No. SV30010) • Cell counting kit-8(Signalway Antibody, Cat. No. CP002) • DMSO (Sigma, Cat. No. D5879) • Centrifuge Tube, 15 ml (Excell Bio, Cat. No. CS015-0001) • Cell Culture Dish, (Excell Bio, Cat. No. CS016-0128) • 96-well cell culture cluster (Corning, Cat. No. 3599)
(1) CWR22RV1 cells were subcultured with cell culture medium, and well-growth cells were inoculated in 96-well plates, with 80 μL per well. The number of cells in each well was 1500, and the plate was cultured overnight in a 37° C., 5% CO2 cell incubator.
(2) The drug was prepared as a 30 mM stock solution using dimethyl sulfoxide (DMSO). before use, the stock solution was diluted 3 times with DMSO, and then diluted by a 3 times gradient to obtain 9 concentration gradients. The compound at each concentration was further diluted 200 times with the culture solution (to ensure that the DMSO concentration in the culture system was 0.1%), and each concentration was repeated 2 wells. 20 μL of the diluted compound was added to the cell culture wells (with final concentrations of 10 μM, 3.3 μM, 1.1 μM . . . ), and gently shaked to mix. In addition, three negative control wells containing only cells and three blank control wells containing only culture medium (6 wells each containing 20 μL DMSO 200-fold diluted with culture medium) were set.
(1) After being cultured for 6 days, 10 μL CCK-8 was added to each well, and the cells were further cultured in a 5% CO2 cell incubator at 37° C. for 2.5 hours.
(2) The absorbance (OD value) was measured at 450 nm with a multifunctional microplate reader.
(3) The data were analyzed with the Dose-response-inhibition equation in the software GraphPad Prism6, and IC50 values were obtained.

BRD2(1, 2) = BRD2(1, 2) (Homo sapiens (Human), UniProt P25440); experiment: AlphaScreen binding assay, BRD2 (D1+D2)
Sequence of BRD2(1, 2) (P25440 65-459): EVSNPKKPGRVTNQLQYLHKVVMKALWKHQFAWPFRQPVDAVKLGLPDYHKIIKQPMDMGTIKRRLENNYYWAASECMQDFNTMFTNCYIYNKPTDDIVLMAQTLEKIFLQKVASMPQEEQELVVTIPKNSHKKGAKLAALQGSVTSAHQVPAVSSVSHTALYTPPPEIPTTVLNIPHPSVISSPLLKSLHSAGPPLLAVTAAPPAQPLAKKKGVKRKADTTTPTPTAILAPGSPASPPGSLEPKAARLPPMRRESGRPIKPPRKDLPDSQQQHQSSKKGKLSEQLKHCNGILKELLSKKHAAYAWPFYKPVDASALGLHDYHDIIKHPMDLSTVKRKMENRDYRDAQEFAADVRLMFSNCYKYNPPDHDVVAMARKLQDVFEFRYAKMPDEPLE
Description: (§1) Homogeneous time-resolved fluorescence (HTRF) was used to detect the binding of the compound to BRD4 (D1 +D2) and BRDT (D1) proteins, and the AlphaScreen method was used to detect the binding of the compound to BRD2 (D1+D2) and BRD3 (D1+D2) proteins.
(§2) Compounds were screened in vitro, and each concentration of the compound was diluted to 10 different concentrations. Four proteins, BRD4 (D1 +D2), BRDT (D1), BRD2 (D1+D2) and BRD3 (D1+D2), were selected to determine their IC50 values (see Table 1).
(§3) The test compound was dissolved in dimethylsulfoxide (DMSO) and stored at a concentration of 10 mM.
(§4) 6. AlphaScreen detection step:
(§5) 1) Preparing 1-fold concentration of detection buffer
(§6) 1-fold concentration of detection buffer was prepared (modified HEPES buffer).
(§7) 2) Gradient dilution of compounds
(§8) The compound was transferred to the detection plate with an Echo autosampler for gradient dilution, so that the final concentration of dimethyl sulfoxide was 0.1%.
(§9) 3) Preparation of protein solution
(§10) The protein was dissolved in a 1-fold concentration of detection buffer.
(§11) 4) Preparation of substrate solution
(§12) The peptide was dissolved in 1-fold concentration of detection buffer to prepare a substrate solution.
(§13) 5) 5 μL protein solution was transferred to the assay plate, and 5 μL 1-fold concentration of detection buffer was placed in the negative control well.
(§14) 6) The plate was incubated at room temperature for 15 minutes.
(§15) 7) 5 μL substrate solution was added to each well to start the reaction.
(§16) 8) The plate was incubated at room temperature for 60 minutes.
(§17) 9) Acceptor and donor solutions were prepared in 1-fold concentration of assay buffer.
(§18) 15 μL acceptor and donor solution were added, respectively, and the plate was incubated at room temperature for 60 minutes without light.
(§19) 10) The end point was read in EnSpire and Alpha mode.
(§20) 11) The curve was fitted.
(§21) The experimental data were entered into an Excel file, and the equation (1) was used to get the inhibitory rate. Inh %=(Max−Signal)/(Max−Min)*100 Equation (1)
(§22) The resultant data were entered into GraphPad software, and the IC50 value was obtained using equation (2). Y=Bottom+(Top−Bottom)/(1+10^((LogIC50−X)*Hill Slope)) Equation (2)
(§23) Wherein, Y-axis is the inhibition rate, while X-axis is the compound concentration.

BRDT(D1) = BRDT(D1) (Homo sapiens (Human), UniProt Q58F21); experiment: HTRF binding assay, BRDT (D1)
Description: as §1, §2
BRDT(D1)(Active Motif, Cat.No.31450)
as §3
5. Homogeneous Time-Resolved Fluorescence Detection Steps:
1) All compounds were gradiently diluted on Echo plate according to the arrangement of the test plate. The final concentration of DMSO was 0.1%.
2) Compounds or DMSO was transferred to a 384-well assay plate by using Echo autosampler.
3) 2× concentration of protein and peptide mixture was added to the assay plate.
4) 2× concentration of the mixed detection solution was added to the assay plate and shaken for 30 seconds.
5) The plate was incubated at room temperature for 2 hours.
6) The fluorescence signal was read on Envision microplate reader (with excitation light wavelength at 340 nm and emission light wavelength at 615 nm and 665 nm).
as §21, §22, §23

BRD3(1, 2) = BRD3(1, 2) (Homo sapiens (Human), UniProt Q15059); experiment: AlphaScreen binding assay, BRD3 (D1+D2)
Sequence of BRD3(1, 2) (Q15059 29-417): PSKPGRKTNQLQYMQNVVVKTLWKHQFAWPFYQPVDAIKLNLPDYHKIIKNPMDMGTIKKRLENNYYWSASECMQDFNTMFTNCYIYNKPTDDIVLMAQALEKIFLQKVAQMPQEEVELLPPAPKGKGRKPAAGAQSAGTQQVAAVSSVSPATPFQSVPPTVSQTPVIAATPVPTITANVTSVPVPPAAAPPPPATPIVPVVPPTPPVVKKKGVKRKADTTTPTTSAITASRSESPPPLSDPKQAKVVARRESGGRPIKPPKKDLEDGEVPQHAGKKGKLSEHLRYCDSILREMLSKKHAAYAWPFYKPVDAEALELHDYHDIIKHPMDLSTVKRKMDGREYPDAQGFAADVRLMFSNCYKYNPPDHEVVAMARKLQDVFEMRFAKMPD
Description: as §1, §2, §3, §4, §5, §6, §7, §8, §9, §10, §11, §12, §13, §14, §15, §16, §17, §18, §19, §20, §21, §22, §23

BRD4(1, 2) = BRD4(1, 2) (Homo sapiens (Human), UniProt O60885); experiment: HTRF binding assay, BRD4 (D1+D2)
Description: The experimental data were entered into an Excel file, and the equation (1) was used to get the inhibitory rate. Inh %=(Max−Signal)/(Max−Min)*100 Equation (1) […]

Row | SMILES | IC50 (CWR22RV1 cells) | IC50 (BRD2(1, 2)) | IC50 (BRDT(D1)) | IC50 (BRD3(1, 2)) | IC50 (BRD4(1, 2))
1 | Cc1sc2c(c1C)C(c1ccc(Cl)cc1)=N[C@@H](Cc1nnc(C3CC3)o1)c1nnc(C)n1-2 [Compound 20, (S)-2-((4-(4-chlorophenyl)-2,3,9-trimethyl-6H-thieno[3,2-f][1,2,4]triazolo[4,3-a][1,4]diaza-6-yl)methyl)-5-cyclopropyl-1,3,4-oxodiazole] | 37 nM | 10.1 nM | 49 nM | 20 nM | –
2 | CCOCc1nnc(C[C@@H]2N=C(c3ccc(Cl)cc3)c3c(sc(C)c3C)-n3c(C)nnc32)o1 [Compound 6, (S)-2-((4-(4-chlorophenyl)-2,3,9-trimethyl-6H-thieno[3,2-f][1,2,4]triazolo[4,3-a][1,4]diaza-6-yl)methyl)-5-(ethoxylmethyl)-1,3,4-oxodiazole] | 61 nM | 15 nM | 46 nM | 20 nM | –
3 | Cc1sc2c(c1C)C(c1ccc(Cl)cc1)=N[C@@H](Cc1nnc(C(C)C)o1)c1nnc(C)n1-2 [Compound 19, (S)-2-((4-(4-chlorophenyl)-2,3,9-trimethyl-6H-thieno[3,2-f][1,2,4]triazolo[4,3-a][1,4]diaza-6-yl)methyl)-5-isopropyl-1,3,4-oxodiazole] | 28 nM | 8.3 nM | 51 nM | 17 nM | –
4 | CCc1nnc(C[C@@H]2N=C(c3ccc(Cl)cc3)c3c(sc(C)c3C)-n3c(C)nnc32)o1 [Compound 22, (S)-2-((4-(4-chlorophenyl)-2,3,9-trimethyl-6H-thieno[3,2-f][1,2,4]triazolo[4,3-a][1,4]diaza-6-yl)methyl)-5-ethyl-1,3,4-oxodiazole] | 47 nM | 10.8 nM | 46 nM | 21 nM | 25 nM
